Laboratory results published in PMC9266530 (International Journal of Molecular Sciences, 2022).
Several values for one entry are separate records, joined by “and”; a condition that tells them apart may be missing. Identical values can stand only once. Like-named read-outs stand apart in the source and are kept apart here. Each block holds one molecule with its values, some of them ahead of it.

What was measured:
[1] = target: T1, CYP3A4 (Homo sapiens, UniProt P08684); details: previously reported analogues; cited from earlier work
T1 construct: The full-length protein was used for assays and the truncated form was used for crystallization; made in house
Target sequence in this assay (P08684 whole entry, the tested form may be a part): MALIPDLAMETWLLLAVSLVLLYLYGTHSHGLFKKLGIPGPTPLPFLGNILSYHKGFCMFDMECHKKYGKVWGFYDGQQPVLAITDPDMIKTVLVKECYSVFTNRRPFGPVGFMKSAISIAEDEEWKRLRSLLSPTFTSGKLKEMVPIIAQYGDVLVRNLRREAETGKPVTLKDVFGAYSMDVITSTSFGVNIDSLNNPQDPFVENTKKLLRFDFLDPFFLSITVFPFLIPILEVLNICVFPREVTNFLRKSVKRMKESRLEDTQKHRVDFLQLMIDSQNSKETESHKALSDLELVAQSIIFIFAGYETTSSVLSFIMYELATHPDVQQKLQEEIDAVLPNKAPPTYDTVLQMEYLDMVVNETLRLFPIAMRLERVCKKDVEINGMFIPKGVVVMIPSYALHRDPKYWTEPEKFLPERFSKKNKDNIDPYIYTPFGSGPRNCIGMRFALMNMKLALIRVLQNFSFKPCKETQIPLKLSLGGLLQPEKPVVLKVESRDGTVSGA

[2] = target: T1, CYP3A4; assay: Stopped-flow kinetics of ligand binding; details: for Percentage of the absorbance change taking place during the fast kinetic phase: ligand-binding reaction; for kfast: rate constant for the fast kinetic phase of the ligand-binding reaction
Protocol: Kinetics of Ligand Binding—The kinetics of ligand binding to CYP3A4 were measured at 427 nm in an SX.18MV stopped-flow apparatus (Applied Photophysics, UK), as previously described.
Target sequence in this assay (P08684 whole entry, the tested form may be a part): as above

[3] = target: T1, CYP3A4; details: BFC debenzylation activity, same method as in this study; previously reported analogues; cited from earlier work
Target sequence in this assay (P08684 2-503): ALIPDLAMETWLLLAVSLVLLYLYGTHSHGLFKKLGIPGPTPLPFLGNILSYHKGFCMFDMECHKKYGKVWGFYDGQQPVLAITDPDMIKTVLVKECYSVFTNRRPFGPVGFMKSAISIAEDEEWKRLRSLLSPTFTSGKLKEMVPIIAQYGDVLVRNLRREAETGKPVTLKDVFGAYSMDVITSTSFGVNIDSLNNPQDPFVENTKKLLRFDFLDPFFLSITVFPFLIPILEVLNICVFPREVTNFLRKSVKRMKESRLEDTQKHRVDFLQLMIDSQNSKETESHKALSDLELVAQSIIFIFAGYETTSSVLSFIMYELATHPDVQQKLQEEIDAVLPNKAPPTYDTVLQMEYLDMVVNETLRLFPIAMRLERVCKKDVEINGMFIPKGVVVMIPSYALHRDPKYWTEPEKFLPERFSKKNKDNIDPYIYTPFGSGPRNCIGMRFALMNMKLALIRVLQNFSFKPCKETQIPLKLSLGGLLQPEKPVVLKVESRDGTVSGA

[4] = target: T1, CYP3A4; assay: H2O2-dependent heme depletion (heme bleaching) assay; details: for Heme Destroyed: 10 mM H2O2, 2 h, relative to ligand-free CYP3A4 = 100%; for kH2O2: rate constant for the H2O2-dependent heme-bleaching reaction, 10 mM H2O2, 16 μM inhibitor
Protocol: H2O2-dependent heme depletion assay—Heme bleaching in ligand-free and inhibitor-bound CYP3A4 (1.6 μM) was monitored at 23 °C in 0.1 M phosphate buffer, pH 7.4. After 10 min of preincubation of CYP3A4 with 16 μM inhibitors, heme decay was initiated by the addition of 10 mM H2O2 (final concentration) and monitored at 420 nm for 2 h. The percentage of heme destroyed was calculated relative to that in ligand-free CYP3A4, considered as 100% decay.
Target sequence in this assay (P08684 whole entry, the tested form may be a part): as the sequence (P08684 whole entry, the tested form may be a part) above

[5] = target: T1, CYP3A4; assay: Thermal denaturation (ligand-dependent change in melting temperature); type: binding; details: purified CYP3A4 protein solution, pH 7.4, ligand-dependent change in melting temperature of CYP3A4, 1 μM protein, 20 μM ligand
Protocol: Thermal Denaturation—Melting curves were recorded in 0.1 M phosphate buffer, pH 7.4, using a Cary 300 spectrophotometer. Protein (1 μM) was mixed with a ligand (20 μM) and incubated for 15 min at 23 °C. Protein denaturation was monitored at 260 nm using a 0.2 °C measurement step, 0.9 °C/min ramp rate, and 50–75 °C temperature range. The denaturation midpoint (melting temperature; Tm) was determined from non-linear fittings to the melting curve, as described earlier.
Target sequence in this assay (P08684 whole entry, the tested form may be a part): as above

[6] = target: T1, CYP3A4; assay: Spectral binding titrations (equilibrium ligand binding, type II spectral change); details: for Kd: 23 °C, 0.1 M phosphate pH 7.4, quadratic fits to titration plots, read-out: Ks (spectral dissociation constant); for λmax Ferric: ferric ligand-bound CYP3A4; for ΔAmax: maximal absorbance change (peak-to-trough in difference spectrum) relative to that induced by ritonavir; for A421/417: ratio between absorption maxima of ferric ligand-bound and ligand-free CYP3A4; for λmax Ferrous: ferrous ligand-bound CYP3A4
Protocol: Spectral Binding Titrations—Equilibrium ligand binding to CYP3A4 was monitored using a Cary 300 spectrophotometer at 23 °C in 0.1 M phosphate buffer, pH 7.4, supplemented with 20% glycerol and 1 mM dithiothreitol. Inhibitors were dissolved in dimethyl sulfoxide (DMSO) and added to a 2 μM protein solution in small aliquots, with the final solvent concentration of <2%. The spectral dissociation constant (Ks) was determined from quadratic fits to the titration plots.
Target sequence in this assay (P08684 whole entry, the tested form may be a part): as above

[7] = target: T1, CYP3A4; assay: Inhibitory potency for the BFC O-debenzylase activity in a soluble reconstituted system; type: biochemical; details: for IC50: BFC debenzylase activity, soluble reconstituted system with cytochrome P450 reductase
Protocol: Inhibitory Potency Assays—The inhibitory potency for the BFC O-debenzylase activity of CYP3A4 was evaluated fluorometrically in a soluble reconstituted system, and the IC50 values were derived from the [% activity] vs. [inhibitor] plots, as described in detail elsewhere.
Target sequence in this assay (P08684 2-503): as the sequence (P08684 2-503) above

[8] = target: T1, CYP3A4; details: previously reported analogues; read-out: Ks; cited from earlier work
Target sequence in this assay (P08684 whole entry, the tested form may be a part): as the sequence (P08684 whole entry, the tested form may be a part) above

[9] = target: recombinant CYP3A5 (Homo sapiens, UniProt P20815); assay: Inhibitory potency against recombinant CYP3A5; type: biochemical; details: read-out: IC50 estimates
Source text: Thus, one optimization strategy would be the R3 enlargement and branching. […] Our analogues lack the backbone hydroxyl as well, but contain much smaller/chemically simpler end-groups.

Sequence of recombinant CYP3A5 (P20815 whole entry): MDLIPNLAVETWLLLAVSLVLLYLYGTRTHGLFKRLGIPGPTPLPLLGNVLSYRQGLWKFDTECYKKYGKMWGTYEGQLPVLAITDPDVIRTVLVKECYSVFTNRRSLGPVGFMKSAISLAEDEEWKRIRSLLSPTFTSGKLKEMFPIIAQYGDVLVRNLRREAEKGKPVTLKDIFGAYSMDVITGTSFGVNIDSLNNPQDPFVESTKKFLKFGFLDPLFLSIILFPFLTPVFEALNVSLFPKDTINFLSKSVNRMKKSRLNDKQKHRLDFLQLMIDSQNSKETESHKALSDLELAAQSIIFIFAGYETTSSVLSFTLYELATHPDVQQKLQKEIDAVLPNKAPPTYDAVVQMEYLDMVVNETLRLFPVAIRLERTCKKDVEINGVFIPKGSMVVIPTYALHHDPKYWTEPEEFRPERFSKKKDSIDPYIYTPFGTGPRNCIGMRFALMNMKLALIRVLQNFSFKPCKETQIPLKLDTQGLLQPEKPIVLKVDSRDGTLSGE

Structure (SMILES): CC(C)(C)OC(=O)N[C@H](CS[C@H](Cc1ccccc1)C(=O)NCCCc1cccnc1)Cc1ccccc1 [Compound 3a, reference compound]
- ΔTm [1]: 8.1 °C
- Percentage of the absorbance change taking place during the fast kinetic phase [2]: 36%
- kfast [2]: 12.5 ± 1.3 s⁻¹
- IC50 [3]: 160 nM
- Heme Destroyed [4]: 18% and 18 ± 2%
- kH2O2 [4]: 0.21 ± 0.03 10^3 × min^−1

Structure (SMILES): CC(C)(C)OC(=O)N[C@H](CS[C@H](Cc1ccccc1)C(=O)NCc1cccnc1)Cc1ccccc1 [Compound 4b, reference compound]
- Kd [8]: 63 nM
- Percentage of the absorbance change taking place during the fast kinetic phase [2]: 31%
- kfast [2]: 13.2 ± 1.8 s⁻¹
- IC50 [3]: 1190 nM
- Heme Destroyed [4]: 39 ± 5%
- kH2O2 [4]: 0.64 ± 0.07 10^3 × min^−1

Structure (SMILES): CC(C)(C)OC(=O)N[C@H](CS[C@@H](Cc1ccccc1)C(=O)NCCc1cccnc1)Cc1ccccc1 [Compound 4h, reference compound]
- Percentage of the absorbance change taking place during the fast kinetic phase [2]: 28%
- kfast [2]: 13.8 ± 2.0 s⁻¹
- Heme Destroyed [4]: 22 ± 3%
- kH2O2 [4]: 0.32 ± 0.03 10^3 × min^−1

Structure (SMILES): CC(C)(C)OC(=O)N[C@H](CS[C@H](Cc1ccccc1)C(=O)NCCc1ccncc1)Cc1ccccc1 [Compound 5b]
- Percentage of the absorbance change taking place during the fast kinetic phase [2]: 31%
- kfast [2]: 18.2 ± 1.8 s⁻¹
- ΔTm at 15 min, 20 μM [5]: 5 °C
- Kd ([6]; 2 μM protein): 14 ± 2 nM
- λmax Ferric [6]: 423 nm
- λmax Ferrous [6]: 443 nm
- ΔAmax [6]: 126%
- A421/417 [6]: 1.06
- Heme Destroyed [4]: 22% and 22 ± 2%
- kH2O2 [4]: 0.31 ± 0.03 10^3 × min^−1
- IC50 [7]: 160 ± 20 nM
- IC50 [9]: 180 to 200 nM

Structure (SMILES): O=C(CCc1cccnc1)N[C@H](CS[C@@H](Cc1ccccc1)C(=O)NCCc1cccnc1)Cc1ccccc1 [Compound 8c]
- Heme Destroyed [4]: 24 ± 2%
- kH2O2 [4]: 0.32 ± 0.03 10^3 × min^−1
- IC50 [7]: 210 ± 30 nM
- IC50 [9]: 180 to 200 nM

Structure (SMILES): O=C(N[C@H](CS[C@H](Cc1ccccc1)C(=O)NCCCc1cccnc1)Cc1ccccc1)c1cccnc1 [Compound 10a]
- Percentage of the absorbance change taking place during the fast kinetic phase [2]: 30%
- kfast [2]: 15.4 ± 1.8 s⁻¹
- ΔTm at 15 min, 20 μM [5]: 7.2 °C
- Kd ([6]; 2 μM protein): 8 ± 1 nM
- λmax Ferric [6]: 422 nm
- λmax Ferrous [6]: 444 nm
- ΔAmax [6]: 111%
- A421/417 [6]: 1.11
- Heme Destroyed [4]: 13 ± 2%
- kH2O2 [4]: 0.17 ± 0.02 10^3 × min^−1
- improvement in heme protection relative to 3a ([4]; relative to the Boc-containing 3a): 5%
- IC50 [7]: 150 ± 20 nM
- IC50 [9]: 180 to 200 nM

Now from value to molecule, other results behind:

- Percentage of the absorbance change taking place during the fast kinetic phase [2]: 27%
- kfast [2]: 13.8 s⁻¹ and 13.8 ± 1.5 s⁻¹
- ΔTm at 15 min, 20 μM [5]: 1.9 °C
- Kd ([6]; 2 μM protein): 1360 ± 120 nM
- λmax Ferric [6]: 421 nm
- ΔAmax [6]: 98%
- A421/417 [6]: 0.99
- fold increase in Ks relative to 3a ([6]; relative to 3a): 100 fold
- Heme Destroyed [4]: 44 ± 5%
- kH2O2 [4]: 0.70 ± 0.08 10^3 × min^−1
- fold increase in IC50 relative to 3a ([7]; BFC O-debenzylase activity, relative to 3a): 10 fold
- IC50 [7]: 1600 ± 200 nM
Structure (SMILES): CC(C)(C)OC(=O)N[C@H](CS[C@H](Cc1ccccc1)C(=O)NCC(=O)Nc1cccnc1)Cc1ccccc1 [Compound 4]

- Percentage of the absorbance change taking place during the fast kinetic phase [2]: 34%
- kfast [2]: 22.5 ± 3.1 s⁻¹
- ΔTm at 15 min, 20 μM [5]: 5.2 °C
- Kd ([6]; 2 μM protein): 34 ± 5 nM
- λmax Ferric [6]: 422 nm
- λmax Ferrous [6]: 443 nm
- ΔAmax [6]: 105%
- A421/417 [6]: 1.07
- fold improvement in binding affinity relative to 4f ([6]; relative to 4f): 2.2 fold
- Heme Destroyed [4]: 22% and 22 ± 3%
- kH2O2 [4]: 0.31 ± 0.04 10^3 × min^−1
- IC50 [7]: 310 ± 30 nM
- fold improvement in inhibitory potency relative to 4f ([7]; relative to 4f): 1.3 fold
Structure (SMILES): CC(C)(C)OC(=O)N[C@H](CS[C@H](Cc1ccccc1)C(=O)NCc1ccncc1)Cc1ccccc1 [Compound 5a]

- Percentage of the absorbance change taking place during the fast kinetic phase [2]: 26%
- kfast [2]: 10.3 s⁻¹ and 10.3 ± 1.2 s⁻¹
- ΔTm at 15 min, 20 μM [5]: 3.6 °C
- Kd ([6]; 2 μM protein): 120 ± 10 nM
- λmax Ferric [6]: 421 nm
- λmax Ferrous [6]: 443 nm
- ΔAmax [6]: 96%
- A421/417 [6]: 1.03
- Heme Destroyed [4]: 39 ± 4%
- kH2O2 [4]: 0.66 ± 0.10 10^3 × min^−1
- IC50 [7]: 600 ± 40 nM
Structure (SMILES): O=C(Cc1cccnc1)N[C@H](CS[C@H](Cc1ccccc1)C(=O)NCc1cccnc1)Cc1ccccc1 [Compound 8a]

- Percentage of the absorbance change taking place during the fast kinetic phase [2]: 29%
- kfast [2]: 13.7 ± 1.5 s⁻¹
- ΔTm at 15 min, 20 μM [5]: 7.3 °C
- Kd ([6]; 2 μM protein): 9 ± 1 nM
- λmax Ferric [6]: 422 nm
- λmax Ferrous [6]: 443 nm
- Kd ([6]; human, purified CYP3A4 protein solution, pH 7.4, 2 μM protein): 8 to 9 nM
- ΔAmax [6]: 110%
- A421/417 [6]: 1.10
- Heme Destroyed [4]: 19 ± 3%
- kH2O2 [4]: 0.24 ± 0.03 10^3 × min^−1
- IC50 ([7]; human, probe BFC (O-debenzylation)): 210 ± 20 nM
Structure (SMILES): O=C(CNC(=O)c1cccnc1)N[C@H](CS[C@H](Cc1ccccc1)C(=O)NCCCc1cccnc1)Cc1ccccc1 [Compound 10b]

- Percentage of the absorbance change taking place during the fast kinetic phase [2]: 32%
- kfast [2]: 11.4 ± 1.4 s⁻¹
- Heme Destroyed [4]: 37% and 37 ± 4%
- kH2O2 [4]: 0.60 ± 0.08 10^3 × min^−1
Structure (SMILES): CC(C)(C)OC(=O)N[C@H](CS[C@H](Cc1ccccc1)C(=O)NCCc1cccnc1)Cc1ccccc1 [Compound 4f, reference compound]
- ΔTm [1]: 4.2 °C

- Percentage of the absorbance change taking place during the fast kinetic phase [2]: 24%
- kfast [2]: 5.6 s⁻¹ and 5.6 ± 0.6 s⁻¹
- ΔTm at 15 min, 20 μM [5]: 4.2 °C
- Kd ([6]; 2 μM protein): 53 ± 9 nM
- λmax Ferric [6]: 421 nm
- λmax Ferrous [6]: 443 nm
- ΔAmax [6]: 109%
- A421/417 [6]: 1.03
- increase in Ks relative to 4f ([6]; relative to 4f): ~ 20%
- Heme Destroyed [4]: 32 ± 3%
- kH2O2 [4]: 0.44 ± 0.06 10^3 × min^−1
- IC50 [7]: 820 ± 90 nM
- increase in IC50 relative to 4f ([7]; relative to 4f): ~ 20%
Structure (SMILES): O=C(CCc1cccnc1)N[C@H](CS[C@H](Cc1ccccc1)C(=O)NCCc1cccnc1)Cc1ccccc1 [Compound 8b]
